Measured values: patent US9977009B2, “Planar patch clamp device and planar patch clamp system” (Japan Science and Technology Agency, priority 2013, dated 2018)

Tests used:
[1] = tested on: nerve cells obtained by dissecting the cerebral cortex of a rat (neuron network); experiment: Channel current measurement of a neuron network with the composite multi-channel type planar patch clamp device (whole-cell mode); format: cell-based; settings: applied membrane potential −20 mV; for increase of large area pulse channel current in the state of glutamic acid toxicity: CNQX (200 μM) and D-AP5 (200 μM) added together after 20 μM glutamic acid, about 60 minutes, FIG. 12(c)
Description: The composite multi-channel type planar patch clamp device (1b) of the present invention was used to conduct experiments showing that high throughput screening of drugs acting on a neural network is possible. At the cell fixing locations (24) of the Si substrate surface (2S) having approximately 2 micron size through holes (3) of the composite multi-channel type planar patch clamp device (1b) shown in FIG. 5, nerve cells (5) obtained by dissecting the cerebral cortex of a rat on day 17 of birth were seeded. The commercially available nerve cell medium (Sumitomo Bakelite) was added and the result cultured in a dish for 11 days to form a neuron network which was then observed by an optical microscope (FIG. 10). Next, the Si substrate (2) on which the nerve cells (5) were placed was set on the composite multi-channel type planar patch clamp device (1b) and the reservoir sections (22) of the first reservoir (6) were filled with the bath solution (145 mM NaCl+3 mM KCl+10 mM HEPES+2 mM CaCl2+8 mM Glucose+1 mM MgCl2.6H2O, pH7.3). […] A flat baseline was recorded without regard to the applied membrane potential. […] After measurement for about 60 minutes, to one reservoir section (22) of the first reservoir, a bath solution comprising the AMPA receptor antagonist 6-cyano-7-nitroquinoxaline-2,3-dione (CNQX)(200 μM) and NMDA receptor antagonist D-(−)-2-amino-5-phosphonopentanoic acid (D-AP5) (200 μM) dissolved in it was introduced and the channel current was again measured (FIG. 11C). […] To show these states clearer, the channel current of the applied membrane potential −20 mV was focused on and the area of each pulse-like wavelength observed was calculated. […] By filling the other reservoir sections (22) with other candidate drugs, making the valves (10) of the branch supply path (8b) and branch discharge path (9b) corresponding to the measured section the opened state, making the other valves (10) the closed state, and similarly measuring the channel current, it is possible to measure the effect of a candidate drug on the neuron network. […]

[2] = tested on: Cerebral cortex cells of a rat (neuron network); experiment: Ca^2+ imaging of a neuron network; format: cell-based; settings: buffer solution (500 μl) containing 10 μM glutamic acid added; FIG. 13(b)
Experimental: Inside the 35 mm dish (a), the substrate of FIG. 6 (finished being coated by PLL) was placed. Cerebral cortex cells of a rat on day 17 of birth isolated by the enzyme trypsin were suspended by a commercially available nerve cell medium (Sumitomo Bakelite) to give 2.5×10^5 cells/ml. This cell suspension: 2 ml (=5.0×10^5 cells) was added to the dish (a). In the presence of 5% CO2, this was cultured at 37° C. for 17 days. After formation of the neuron network, this substrate was transferred to another dish (b). To this dish (b), a nerve cell medium (2 ml) was added. To this medium, BAPTA-1 (1 μl) and Cremophor (10 μl) were added and cultured at 37° C. for 1 hour. The culture supernatant was discarded and a buffer solution (145 mM NaCl+10 mM HEPES+8 mM Glucose+3 mM KCl+2 mM CaCl2+1 mM MgCl2, pH7.3): 2 ml was added. This was stored at room temperature away from the light until right before use and the Ca^2+ fluorescence intensity was measured (Ca^2+ imaging measurement) (FIG. 13(a)). After this, a buffer solution (500 μl) containing 10 μM concentration glutamic acid was added. After 2.5 minutes, time lapse measurement of Ca^2+ imaging was started (FIG. 13(b)). After 9.5 minutes, an antagonist mixture: 10 μl containing 2.5 mM D-AP5 and 2.5 mM CNQX was added. Furthermore, after 10.5 minutes, time lapse measurement of Ca^2+ imaging was performed (FIG. 13(c)).

| SMILES | increase of large area pulse channel current in the state of glutamic acid toxicity [1] | large area pulse channel current ([1]; glutamic acid added to first reservoir, final concentration 20 μM, FIG. 12(b)) | concentration of Ca^2+ in the cells [2] |
| --- | --- | --- | --- |
| N#Cc1cc2c(cc1[N+](=O)[O-])=NC(=O)C(=O)N=2 [CNQX, 6-cyano-7-nitroquinoxaline-2,3-dione] | substantially eliminated |  |  |
| N[C@H](CCCP(=O)(O)O)C(=O)O [D-AP5, D-(−)-2-amino-5-phosphonopentanoic acid] | substantially eliminated |  |  |
| N[C@@H](CCC(=O)O)C(=O)O [glutamic acid] |  | increases | rise in a fluctuating manner |
